Laboratory results from patent publication US10736317B2, “Composition having sex pheromone activity on San Jose scale, and attractant, mating disruptant, attraction method and mating disruption method for San Jose scale” (SHIN-ETSU CHEMICAL CO., LTD., priority 2017, dated 2020).

Test system: SJS male adult insects
Test: SJS attraction test (white adhesive trap, orchard)
Assay type: in vivo, Quadraspidiotus perniciosus (San Jose scale)
Conditions: conclusion from trap captures
Text: <Evaluation of Sex Pheromone Activity (SJS Attraction Test)> A white adhesive trap was used for evaluation of the sex pheromone activity. […] An adhesive material was applied over the bottom plate, and the attractant, which is shown as “A” in FIG. 1, was placed directly on the adhesive surface. In other words, it is configured to capture only insects that have approached the attractant, whereby keeping unintentional admission of insects as low as possible. In a period of from Jun. 30 to Oct. 2, 2015, the traps, each having one of the attractants, were placed in an orchard where SJS had inhabited. The number of male adult insects captured in each trap was measured for every 7 days. At every measurement, the installation places of the respective traps were changed by rotation of 13 places in total, in order to minimize the effects of installation environment on the number of capture.

In the case of `C=C(C)CCCC(C)CCOC(=O)CC` (stereo not shown) [3,7-dimethyl-7-octenyl propionate], the “sex pheromone activity on the SJS” value is reported as “has a sex pheromone activity on the SJS”.
